For series [1] the following is noted: in DMF, at 25° C.; data from catalogue of NITTO CHEMICAL INDUSTRY CO., LTD.; cited from earlier work.
The nature of series [2]: Acetylene stripped from DMF saturated with acetylene on heating. To be noted: heated to 0° C. The class given is physicochemical. From the text:
The amount of acetylene dissolved in a solvent depends on the temperature of the solvent. Usually increasing the temperature tends to decrease the solubility. […] As mentioned above, the terminology "stripped acetylene" is intended to refer to "acetylene stripped from a solvent".

With `O=C=O` [CO2, carbon dioxide], the Solubility in series [1] is on record as 4.5 l/l. As to `[HH]` [H2, hydrogen], the Solubility in series [1] is 0.04 l/l. Take `C#C` [C2 H2, acetylene]: the Solubility in series [1] is 31.4 l/l. Besides, the “acetylene at S.T.P. stripped from 1 l of DMF” value was “about 238 l” in series [2] (DMF saturated with acetylene at -40° C.) and “about 382 l” in series [2] (DMF saturated with acetylene at -60° C.). `[C-]#[O+]` [CO]: the Solubility in series [1] was 0.06 l/l.

Values taken from US4863493A, “High purity acetylene gas” (Nichigo Acetylene Kabushiki Kaisha, priority 1987, dated 1989).
